A value given as a limit tells only on which side of the number the result lay.

This experiment deals with His-tagged N-terminal ATP binding domain (amino acid residues 9-236) of HSP90α (Homo sapiens, UniProt P07900). In words: HSP90 inhibitor binding potency: TRF competition binding assay. As to conditions: Table 4; competition with biotinylated radicicol. Summed up:
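Competition against biotinylated radicicol for binding to the His-tagged 9-236 ATP domain of HSP90α: 2 h, room temperature, HEPES/MgCl2/KCl/BSA buffer. Streptavidin capture, then europium-labeled anti-His antibody and enhancement solution; europium counts give IC50.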

Consider `CCOc1nc(-c2cc(F)ccc2[C@H]2Cc3nc(N)nc(C)c3C(=O)N2)cnc1N` [Compound 196, (R)-2-Amino-7-[2-(5-amino-6-ethoxy-pyrazin-2-yl)-4-fluoro-phenyl]-4-methyl-7,8-dihydro-6H-pyrido[4,3-d]pyrimidin-5-one], for which the 50% inhibitory concentration (IC50) was under 10 µM.

The molecule `CCOc1nc(-c2ccccc2[C@H]2Cc3nc(N)nc(C)c3C(=O)N2)cnc1N` [Compound 197, (R)-2-Amino-7-[2-(5-amino-6-ethoxy-pyrazin-2-yl)-phenyl]-4-methyl-7,8-dihydro-6H-pyrido[4,3-d]pyrimidin-5-one] registered an IC50 of under 10 µM.

`CCc1nc(N)nc2c1C(=O)N[C@@H](c1ccccc1-c1cccc(OC)n1)C2` [Compound 198, (R)-2-Amino-4-ethyl-7-[2-(6-methoxy-pyridin-2-yl)-phenyl]-7,8-dihydro-6H-pyrido[4,3-d]pyrimidin-5-one] showed an IC50 of under 10 µM.

On to `CCc1nc(N)nc2c1C(=O)N[C@@H](c1ccccc1-c1cncc(OC)n1)C2` [Compound 199, (R)-2-Amino-4-ethyl-7-[2-(6-methoxy-pyrazin-2-yl)-phenyl]-7,8-dihydro-6H-pyrido[4,3-d]pyrimidin-5-one], for which the concentration for half-maximal inhibition (IC50) is under 10 µM.

As for `CCc1nc(N)nc2c1C(=O)N[C@@H](c1ccccc1-c1cnc(N)c(OC)n1)C2` [Compound 200, (R)-2-Amino-7-[2-(5-amino-6-methoxy-pyrazin-2-yl)-phenyl]-4-ethyl-7,8-dihydro-6H-pyrido[4,3-d]pyrimidin-5-one], the IC50 is under 10 µM.

Molecule `CCc1nc(N)nc2c1C(=O)N[C@@H](c1ccccc1-c1csc(OC)n1)C2` [Compound 201, (R)-2-Amino-4-ethyl-7-[2-(2-methoxy-thiazol-4-yl)-phenyl]-7,8-dihydro-6H-pyrido[4,3-d]pyrimidin-5-one] returned an IC50 of at least 10 µM.

Molecule `COc1nc(-c2cc(F)ccc2[C@H]2Cc3nc(N)nc(C)c3C(=O)N2)ncc1Cl` [Compound 202, (R)-2-Amino-7-[2-(5-chloro-4-methoxy-pyrimidin-2-yl)-4-fluoro-phenyl]-4-methyl-7,8-dihydro-6H-pyrido[4,3-d]pyrimidin-5-one] returned an IC50 of under 10 µM.

`COc1cncc(-c2ccccc2[C@H]2Cc3nc(N)ncc3C(=O)N2)n1` [Compound 203, (R)-2-Amino-7-[2-(6-methoxy-pyrazin-2-yl)-phenyl]-7,8-dihydro-6H-pyrido[4,3-d]pyrimidin-5-one] gave an IC50 of under 10 µM.

In turn, `COc1nc(-c2ccccc2[C@H]2Cc3nc(N)nc(C)c3C(=O)N2)ncc1F` [Compound 204, (R)-2-Amino-7-[2-(5-fluoro-4-methoxy-pyrimidin-2-yl)-phenyl]-4-methyl-7,8-dihydro-6H-pyrido[4,3-d]pyrimidin-5-one] had an IC50 of under 10 µM.

In turn, `COc1nc(-c2ccccc2[C@H]2Cc3nc(N)nc(C)c3C(=O)N2)ccc1N` [Compound 205, (R)-2-Amino-7-[2-(5-amino-6-methoxy-pyridin-2-yl)-phenyl]-4-methyl-7,8-dihydro-6H-pyrido[4,3-d]pyrimidin-5-one] returned an IC50 of under 10 µM.

`COc1cccc(-c2ccccc2[C@H]2Cc3nc(N)ncc3C(=O)N2)n1` [Compound 206, (R)-2-Amino-7-[2-(6-methoxy-pyridin-2-yl)-phenyl]-7,8-dihydro-6H-pyrido[4,3-d]pyrimidin-5-one] displayed an IC50 of under 10 µM.

Take `Cc1nc(N)nc2c1C(=O)N[C@@H](c1ccc(F)cc1-c1nccc(N3CCCC3)n1)C2` [Compound 207, (R)-2-Amino-7-[4-fluoro-2-(4-pyrrolidin-1-yl-pyrimidin-2-yl)-phenyl]-4-methyl-7,8-dihydro-6H-pyrido[4,3-d]pyrimidin-5-one]: the IC50 is at least 10 µM.

`COc1nc(-c2cc(F)ccc2[C@H]2Cc3nc(N)ncc3C(=O)N2)ccc1N` [Compound 208, (R)-2-Amino-7-[2-(5-amino-6-methoxy-pyridin-2-yl)-4-fluoro-phenyl]-7,8-dihydro-6H-pyrido[4,3-d]pyrimidin-5-one] returned an IC50 of under 10 µM.

Molecule `COc1ccc(-c2cc(F)ccc2[C@H]2Cc3nc(N)nc(C)c3C(=O)N2)s1` [Compound 209, (R)-2-Amino-7-[4-fluoro-2-(5-methoxy-thiophen-2-yl)-phenyl]-4-methyl-7,8-dihydro-6H-pyrido[4,3-d]pyrimidin-5-one] registered an IC50 of under 10 µM.

The molecule `CCc1nc(N)nc2c1C(=O)N[C@@H](c1ccc(F)cc1Br)C2` [Compound 210, (R)-2-Amino-7-(2-bromo-4-fluoro-phenyl)-4-ethyl-7,8-dihydro-6H-pyrido[4,3-d]pyrimidin-5-one] had an IC50 of at least 10 µM.

Take `CCc1nc(N)nc2c1C(=O)N[C@@H](c1ccc(F)cc1-c1cccc(OC)n1)C2` [Compound 211, (R)-2-Amino-4-ethyl-7-[4-fluoro-2-(6-methoxy-pyridin-2-yl)-phenyl]-7,8-dihydro-6H-pyrido[4,3-d]pyrimidin-5-one]: the IC50 is under 10 µM.

In the case of `CCc1nc(N)nc2c1C(=O)N[C@@H](c1ccc(F)cc1-c1cncc(OC)n1)C2` [Compound 212, (R)-2-Amino-4-ethyl-7-[4-fluoro-2-(6-methoxy-pyrazin-2-yl)-phenyl]-7,8-dihydro-6H-pyrido[4,3-d]pyrimidin-5-one], the IC50 is under 10 µM.

`COc1cccc(-c2cc(F)ccc2[C@H]2Cc3nc(N)nc(C)c3C(=O)N2)c1OC` [Compound 213, (R)-2-Amino-7-(5-fluoro-2′,3′-dimethoxy-biphenyl-2-yl)-4-methyl-7,8-dihydro-6H-pyrido[4,3-d]pyrimidin-5-one] registered an IC50 of under 10 µM.

`CCOc1nc(-c2cc(F)ccc2[C@H]2Cc3nc(N)ncc3C(=O)N2)cnc1N` [Compound 214, (R)-2-Amino-7-[2-(5-amino-6-ethoxy-pyrazin-2-yl)-4-fluoro-phenyl]-7,8-dihydro-6H-pyrido[4,3-d]pyrimidin-5-one] had an IC50 of under 10 µM.

In the case of `CCc1nc(N)nc2c1C(=O)N[C@@H](c1ccc(F)cc1-c1csc(OC)n1)C2` [Compound 215, (R)-2-Amino-4-ethyl-7-[4-fluoro-2-(2-methoxy-thiazol-4-yl)-phenyl]-7,8-dihydro-6H-pyrido[4,3-d]pyrimidin-5-one], the IC50 was under 10 µM.

Consider `CCOc1cncc(-c2cc(F)ccc2[C@H]2Cc3nc(N)nc(C)c3C(=O)N2)n1` [Compound 216, (R)-2-Amino-7-[2-(6-ethoxy-pyrazin-2-yl)-4-fluoro-phenyl]-4-methyl-7,8-dihydro-6H-pyrido[4,3-d]pyrimidin-5-one], for which the IC50 is under 10 µM.

Molecule `CCOc1cncc(-c2cc(F)ccc2[C@H]2Cc3nc(N)nc(CC)c3C(=O)N2)n1` [Compound 217, (R)-2-Amino-7-[2-(6-ethoxy-pyrazin-2-yl)-4-fluoro-phenyl]-4-ethyl-7,8-dihydro-6H-pyrido[4,3-d]pyrimidin-5-one] registered an IC50 of under 10 µM.

On to `CCOc1cncc(-c2cc(F)ccc2[C@H]2Cc3nc(N)ncc3C(=O)N2)n1` [Compound 218, (R)-2-Amino-7-[2-(6-ethoxy-pyrazin-2-yl)-4-fluoro-phenyl]-7,8-dihydro-6H-pyrido[4,3-d]pyrimidin-5-one], for which the concentration for half-maximal inhibition (IC50) is under 10 µM.

`Cc1nc(N)nc2c1C(=O)N[C@@H](c1ccc(F)cc1C#N)C2` [Compound 219, 2-((R)-2-Amino-4-methyl-5-oxo-5,6,7,8-tetrahydro-pyrido[4,3-d]pyrimidin-7-yl)-5-fluoro-benzonitrile] had an IC50 of at least 10 µM.

With `CCOc1cncc(-c2ccccc2[C@H]2Cc3nc(N)nc(C)c3C(=O)N2)n1` [Compound 220, (R)-2-Amino-7-[2-(6-ethoxy-pyrazin-2-yl)-phenyl]-4-methyl-7,8-dihydro-6H-pyrido[4,3-d]pyrimidin-5-one], the IC50 is under 10 µM.

Molecule `COc1nc(-c2ccccc2[C@H]2Cc3nc(N)nc(C)c3C(=O)N2)ncc1C` [Compound 221, (R)-2-Amino-7-[2-(4-methoxy-5-methyl-pyrimidin-2-yl)-phenyl]-4-methyl-7,8-dihydro-6H-pyrido[4,3-d]pyrimidin-5-one] gave an IC50 of under 10 µM.

On to `Cc1nc(N)nc2c1C(=O)N[C@@H](c1ccc(F)cc1-c1n[nH]c(=O)o1)C2` [Compound 222, (R)-2-Amino-7-[4-fluoro-2-(5-oxo-4,5-dihydro-[1,3,4]oxadiazol-2-yl)-phenyl]-4-methyl-7,8-dihydro-6H-pyrido[4,3-d]pyrimi[…]din-5-one], for which the half-maximal inhibitory concentration (IC50) is at least 10 µM.

`COc1nnc(-c2cc(F)ccc2[C@H]2Cc3nc(N)nc(C)c3C(=O)N2)o1` [Compound 223, (R)-2-Amino-7-[4-fluoro-2-(5-methoxy-[1,3,4]oxadiazol-2-yl)-phenyl]-4-methyl-7,8-dihydro-6H-pyrido[4,3-d]pyrimidin-5-one] displayed an IC50 of under 10 µM.

As to `COc1cncc(-c2scnc2[C@@H]2Cc3nc(N)ncc3C(=O)N2)n1` [Compound 224, (S)-2-Amino-7-[5-(6-methoxy-pyrazin-2-yl)-thiazol-4-yl]-7,8-dihydro-6H-pyrido[4,3-d]pyrimidin-5-one], the IC50 was under 10 µM.

In turn, `COc1ncc(-c2cc(F)ccc2[C@H]2Cc3nc(N)nc(C)c3C(=O)N2)s1` [Compound 225, (R)-2-Amino-7-[4-fluoro-2-(2-methoxy-thiazol-5-yl)-phenyl]-4-methyl-7,8-dihydro-6H-pyrido[4,3-d]pyrimidin-5-one] registered an IC50 of under 10 µM.

On to `CCOc1nc(-c2cc(F)ccc2[C@H]2Cc3nc(N)nc(CC)c3C(=O)N2)cnc1N` [Compound 226, (R)-2-Amino-7-[2-(5-amino-6-ethoxy-pyrazin-2-yl)-4-fluoro-phenyl]-4-ethyl-7,8-dihydro-6H-pyrido[4,3-d]pyrimidin-5-one], for which the 50% inhibitory concentration (IC50) was under 10 µM.

In turn, `COc1ccc([C@H]2Cc3nc(N)nc(C)c3C(=O)N2)c(-c2cncc(OC)n2)c1` [Compound 227, (R)-2-Amino-7-[4-methoxy-2-(6-methoxy-pyrazin-2-yl)-phenyl]-4-methyl-7,8-dihydro-6H-pyrido[4,3-d]pyrimidin-5-one] showed an IC50 of under 10 µM.

The molecule `COc1nc(-c2ccccc2[C@H]2Cc3nc(N)ncc3C(=O)N2)cnc1N` [Compound 229, (R)-2-Amino-7-[2-(5-amino-6-methoxy-pyrazin-2-yl)-phenyl]-7,8-dihydro-6H-pyrido[4,3-d]pyrimidin-5-one] had an IC50 of under 10 µM.

Broadly, the IC50 is the concentration at which inhibition is half-maximal.
